Test results published in BigSolDB 2.1.

O=C1CCCCCN1
Conditions | solubility (mole fraction)
in acetonitrile, 278.85 K | 0.149
in acetonitrile, 283.65 K | 0.187
in acetonitrile, 288.25 K | 0.236
in acetonitrile, 293.55 K | 0.294
in acetonitrile, 298.45 K | 0.359
in acetonitrile, 303.65 K | 0.427
in acetonitrile, 308.15 K | 0.486
in acetonitrile, 313.15 K | 0.558
in acetonitrile, 318.65 K | 0.637
in acetonitrile, 323.15 K | 0.725
in benzene, 279.25 K | 0.2
in benzene, 284.15 K | 0.232
in benzene, 288.55 K | 0.27
in benzene, 293.15 K | 0.31
in benzene, 297.85 K | 0.361
in benzene, 303.05 K | 0.423
in benzene, 307.25 K | 0.482
in benzene, 313.25 K | 0.566
in benzene, 317.45 K | 0.631
in benzene, 321.75 K | 0.701
in cyclohexane, 283.65 K | 0.0042
in cyclohexane, 288.25 K | 0.00616
in cyclohexane, 292.85 K | 0.00897
in cyclohexane, 297.95 K | 0.0144
in cyclohexane, 302.95 K | 0.0244
in cyclohexane, 307.25 K | 0.0373
in cyclohexane, 312.55 K | 0.0617
in cyclohexane, 318.35 K | 0.108
in cyclohexane, 322.65 K | 0.163
in ethyl acetate, 278.85 K | 0.103
in ethyl acetate, 283.65 K | 0.127
in ethyl acetate, 288.35 K | 0.156
in ethyl acetate, 292.95 K | 0.192
in ethyl acetate, 298.05 K | 0.243
in ethyl acetate, 302.85 K | 0.304
in ethyl acetate, 307.15 K | 0.364
in ethyl acetate, 312.35 K | 0.459
in ethyl acetate, 317.15 K | 0.557
in ethyl acetate, 321.55 K | 0.654
